Measurements published in patent US20060222647A1, “Methods and compositions for modulating the activity of PDE5” (priority 1993, published 2006).
Where two headings read alike, the source gives them in different places.

Tests used:
bovine cGB-PDE = molecular target: T1, bovine cGB-PDE (Bos taurus, UniProt Q28156); test: [3H]cGMP-binding assay of extracts of COS-7 cells transfected with pCDM8-cGB-PDE
T1 construct: which contains the entire coding region of cGB-8; made in house; host or cells: COS-7 cells, whole-cell extract
Experimental: Cell extracts were assayed for [^3H]cGMP-binding activity in the absence or presence of 0.2 mM 3-isobutyl-1-methylaxanthine (IBMX) (Sigma), a competitive inhibitor of cGMP hydrolysis. The cGMP binding assay, modified from the assay described in Thomas I, supra, was conducted in a total volume of 80 μl. […] Assays were carried out in the absence and presence of 0.2 mM IBMX. The reaction was initiated by the addition of the cell extract, and was incubated for 60 minutes at 0° C. Filtration of the reaction mixtures was carried out as described in Thomas I, supra. Blanks were determined by parallel incubations with homogenization buffer replacing cell extracts, or with a 100-fold excess of unlabelled cGMP.
Results of the assay are set out in FIG. 7. […] The ability of IBMX to stimulate cGMP binding 2-5 fold is a distinctive property of the cGMP-binding phosphodisterases.
Results are presented in FIG. 8 wherein cGMP binding in the absence of unlabelled competitor was taken as 100% and each data point represents the average of three separate determinations.

[1] = molecular target: native cGB-PDE and WT cGB-PDE (Bos taurus, UniProt Q28156); test: cGMP-binding kinetics of native and recombinant wild type cGB-PDE; design: species or system bovine
D478A mutant cGB-PDE = D478A mutant cGB-PDE (Bos taurus, UniProt Q28156, D478A); test: cGMP-binding kinetics of D478A mutant cGB-PDE; design: species or system bovine
recombinant PDE5 = molecular target: T2, recombinant PDE5 (Mus musculus, UniProt Q8CG03); test: cGMP saturation binding assay (Millipore filter binding); conditions: 0.01-20 μM cGMP, IBMX present, 30 min on ice
T2 construct: made in house; host or cells: HEK 293 cells, transient transfection; lysate supernatant or Mono Q fractions
Experimental: Binding studies were conducted by the Millipore filter binding assay in a total volume of 40 μl containing binding buffer (50 mM Tris-HCl, pH 7.5, 2.0 mM EDTA, 1 mM DTT, 100 mM NaCl) and 0.1 mM IBMX in the presence of 0.01 -20 μM ^3H-cGMP. In some experiments an additional 30 min preincubation of recombinant PDE5 with monoclonal antibodies (mAb/P3B2 or mAb/P4D8) was performed before addition of cGMP. Following a 30 min incubation on ice, 1 ml of ice cold binding buffer was added to the assays. The samples were immediately filtered through a Millipore HAWP nitrocellulose membrane (pore size 0.45 μM, 24 mm diameter) and rinsed three times with ice cold binding buffer (10 ml each). The filters were dissolved in 5 ml of Filter Count™ (Packard Instrument) and counted in a liquid scintillation counter.
The cGMP saturation binding assay was employed (FIG. 14) using recombinant PDE5 without (filled squares) or with preincubation with monoclonal antibodies mAb/P3B2 (filled circles) or mAb/P4D4 (filled triangles) for 30 min on ice, to determine the Kd for cGMP binding. The binding assays were performed with 0.01-20 μM cGMP in the presence of […] for 30 min on ice. The specific binding (cpm) is calculated by subtraction of nonspecific binding from total binding. […] A linear scatchard plot of the cGMP binding data indicated one class of cGMP-binding sites. […]

recombinant mouse PDE5 [2] = molecular target: T3, recombinant mouse PDE5 (Mus musculus, UniProt Q8CG03); test: PDE5 activity assay of recombinant mouse PDE5 expressed in HEK 293 cells; type: biochemical; conditions: for IC50: IC50 for sildenafil inhibition
T3 construct: made in house; host or cells: HEK 293 cells, transient transfection; lysate supernatant or Mono Q fractions
Experimental: Phosphodiesterase assays were carried out according to established procedures. All assays were performed for 5 min (unless otherwise indicated) at 30° C. using different concentrations of cGMP (0.1-10 μM) as substrates. Protein concentrations were determined by the Coomassie Plus protein assay (Pierce).
Recombinant mouse PDE5 was expressed in HEK 293 cells. […] The cells were lysed in a small volume of homogenization buffer in order to obtain a concentrated extract, and then the cell extract was preincubated with 50 μM cGMP on ice without PDE inhibitors (filled triangles, FIGS. 11A and 11B) or with 0.2 μM sildenafil (filled circles, FIG. 11B). At different time points aliquots were diluted 1/400-1/500, and different amounts of diluted extract (additional dilution 1/5-1/10) were used for PDE5 activity assayed at 0.1 μM cGMP for 5 min at 30° C. An additional portion of 50 μM cGMP was added to the preincubation mixture at 60 min after the start of preincubation as indicated by an arrow (open triangles, FIG. 11A). PDE5 activity was expressed as pmol/min/μg of protein. […] The percent of 50 μM cGMP hydrolysis at different time points was measured using the PDE5 activity assay.
To investigate this further, PDE5 was preincubated of with 50 μM cGMP on ice and an aliquot was diluted and assayed with either 0.1 μM, 1.0 μM or […] cGMP for 5 min at 30° C. Data are expressed as fold activation of PDE5 activity after preincubation with 50 μM cGMP (FIG. 12A).
PDE5 activity was measured at 0.1 μM (FIG. 16A), 1.0 μM (FIG. 16B) or 10 μM cGMP (FIG. 16C). It was analyzed without any treatments (filled squares), or after preincubation with 50 μM cGMP on ice (filled triangles), or after preincubation with mAb/P3B2 for 30 min on ice (filled circles). Treatment of PDE5 with mAb/P3B2 for 30 min on ice preceded preincubation with 50 μM cGMP (open circles). PDE5 activity was expressed as […].
Kinetic and inhibitory characteristics of activated PDE5. […] FIG. 18A depicts a Lineweaver-Burk double-reciprocal plot (0.1-10 μM cGMP) of activated (after preincubation with cGMP on ice) (filled triangles) PDE5 and mAb/P3B2 treated PDE5 (filled circles). PDE5 activity was expressed as pmol/min/μg of protein. […] PDE5 activities, assayed at each substrate concentration without sildenafil, were expressed as 100%. Km, Vmax and IC50 values were calculated using GraphPad Prism 2.0 C (GraphPad Software, San Diego, Calif.).

recombinant mouse PDE5 [3] = molecular target: T3, recombinant mouse PDE5; test: as above; type: biochemical; conditions: assayed at 10 μM cGMP
D289A mutant cGB-PDE = D289A mutant cGB-PDE (Bos taurus, UniProt Q28156, D289A); test: cGMP-binding kinetics of D289A mutant cGB-PDE
From the text: This curvilinearity may have been due to the presence of distinct high affinity (slow) and low affinity (fast) sites of cGMP binding.

cGB-PDE = cGB-PDE (Bos taurus, UniProt Q28156); test: Metal dependence of cGB-PDE PDE activity; type: biochemical
Experimental: The catalytic domains of mammalian PDEs and a Drosophila PDE contain two tandem conserved sequences (HX3 HX24 26 E) that are typical Zn^2+-binding motifs in Zn^2+ hydrolases such as thermolysin (Vallee and Auld, Biochem., 29: 5647-5659 (1990)). cGB-PDE binds Zn^2+ in the presence of large excesses of Mg^2+, Mn^2+, Fe^2+, Fe^3+, Ca^2+ or Cd^2+. In the absence of added metal, cGB-PDE has a PDE activity that is approximately 20% of the maximum activity that occurs in the presence of 40 mM Mg^2+, and this basal activity is inhibited by 1,10-phenanthroline or EDTA. […] PDE activity is stimulated by addition of Zn^2+ (0.02-1 μM) or Co^2+([…]), but not by Fe^2+, Fe^3+, Ca^2+, Cd^2+, or Cu^2+. Zn increases the basal PDE activity up to 70% of the maximum stimulation produced by 40 mM Mg^2+. The stimulatory effect of Zn^2+ in these assays may be compromised by an inhibitory effect that is caused by Zn^2+ concentrations>1 μM. The Zn^2+-supported PDE activity and Zn^2+ binding by cGB-PDE occur at similar concentrations of Zn^2+ cGB-PDE thus appears to be a Zn^2+ hydrolase and Zn^2+ appears to play a critical role in the activity of the enzyme. See, Colbran et al., The FASEB J., 8: Abstract 2148 (Mar. 15, 1994).

[4] = molecular target: expressed bovine cGB-PDE cDNA protein product (Bos taurus, UniProt Q28156); test: cGMP phosphodiesterase activity of extracts of COS cells transfected with bovine cGB-PDE, in presence of PDE inhibitors; type: biochemical
Experimental: The reaction mixture was incubated for 10 minutes at 30° C., and then stopped by boiling. Next, 10 μl of 10 mg/ml Crotalus atrox venom (Sigma) was added followed by a 10 minute incubation at 30° C.

[5] = activated PDE5 (preincubated with 50 μM cGMP)

SMILES: Nc1nc2c(ncn2[C@@H]2O[C@@H]3COP(=O)(O)O[C@H]3[C@H]2O)c(=O)[nH]1 [cGMP]
- excess concentration of unlabelled competitor required to inhibit [3H]cGMP binding by 50% (bovine cGB-PDE; 2.5 μM [3H]cGMP): Less than 10 fold higher concentrations
- Kd [1]: ~2000 nM
- Kd (D478A mutant cGB-PDE): ~500 nM
- t1/2 of single cGMP-dissociation rate (D478A mutant cGB-PDE): 2.8 h
- Kd (recombinant PDE5): 120 nM
- Km (recombinant mouse PDE5 [2]; [5]): 0.96 µM
- Vmax (recombinant mouse PDE5 [2]; [5]): 27 pmol/min/μg of protein
- PDE5 activation after preincubation with 50 μM cGMP (recombinant mouse PDE5 [2]; assayed at 0.1 μM cGMP, 5 min 30° C., 15 min preincubation on ice): 10 times
- PDE5 activation after preincubation with 50 μM cGMP (recombinant mouse PDE5 [2]; assayed at 1.0 μM cGMP): 2-3 times
- Vmax (recombinant mouse PDE5 [2]; non-activated PDE5 (mAb/P3B2 treated)): 8.9 pmol/min/μg of protein
- Km (recombinant mouse PDE5 [2]; non-activated PDE5 (mAb/P3B2 treated), read-out: Km for cGMP): 4.6 µM
- PDE5 activation after preincubation with 50 μM cGMP (recombinant mouse PDE5 [3]): not detectable
- t1/2 of single rate of cGMP-association (D289A mutant cGB-PDE): 0.5 h
- Kd (D289A mutant cGB-PDE; read-out: Kd of cGMP binding): > 20000 nM

SMILES: O=C(O)CN(CCN(CC(=O)O)CC(=O)O)CC(=O)O [EDTA]
- effect on basal PDE activity in absence of added metal (cGB-PDE): inhibited

SMILES: CCCc1nn(C)c2c(=O)[nH]c(-c3cc(S(=O)(=O)N4CCN(C)CC4)ccc3OCC)nc12 [sildenafil]
- time PDE5 activation was sustained during preincubation with 50 μM cGMP (recombinant mouse PDE5 [2]; 0.2 μM sildenafil in preincubation mixture): at least 90 min
- IC50 (recombinant mouse PDE5 [2]; activated PDE5, assayed at 0.1 μM cGMP): 0.6 nM
- IC50 (recombinant mouse PDE5 [2]; activated PDE5, assayed at 1.0 μM cGMP): 1.2 nM
- IC50 (recombinant mouse PDE5 [2]; control PDE5, assayed at 0.1 μM cGMP): 2.1 nM
- IC50 (recombinant mouse PDE5 [2]; control PDE5, assayed at 1.0 μM cGMP): 4.9 nM

SMILES: c1cnc2c(c1)ccc1cccnc12 [1,10-phenanthroline]
- effect on basal PDE activity in absence of added metal (cGB-PDE): inhibited

SMILES: CC(C)Cn1c(=O)n(C)c(=O)c2[nH]cnc21 [IBMX, 3-isobutyl-1-methylaxanthine]
- stimulation of cGMP binding (bovine cGB-PDE; 0.2 mM IBMX, 1 μM [3H]cGMP): approximately 1.8 fold

SMILES: COc1ccc(C2CNC(=O)C2)cc1OC1CCCC1 (stereo not drawn) [rolipram]
- IC50 [4]: > 300000 nM

SMILES: CCCOc1ccccc1-c1nc2nn[nH]c2c(=O)[nH]1
- IC50 [4]: 2000 nM
